According to ChEMBL document CHEMBL4007476, “Chemical synthesis, redox transformation, and identification of sonnerphenolic C, an antioxidant in Acer nikoense” (Bioorg Med Chem Lett, 2017):

Key:
[1] = biological target: T1, Tyrosinase (Homo sapiens, UniProt P14679); experiment: Drug level treated with 10 mM epirhododendrin assessed as tyrosinase (unknown origin)-mediated redox transformation in presence of vitamin C by HPLC analysis; format: ADME
T1 sequence (P14679 whole entry): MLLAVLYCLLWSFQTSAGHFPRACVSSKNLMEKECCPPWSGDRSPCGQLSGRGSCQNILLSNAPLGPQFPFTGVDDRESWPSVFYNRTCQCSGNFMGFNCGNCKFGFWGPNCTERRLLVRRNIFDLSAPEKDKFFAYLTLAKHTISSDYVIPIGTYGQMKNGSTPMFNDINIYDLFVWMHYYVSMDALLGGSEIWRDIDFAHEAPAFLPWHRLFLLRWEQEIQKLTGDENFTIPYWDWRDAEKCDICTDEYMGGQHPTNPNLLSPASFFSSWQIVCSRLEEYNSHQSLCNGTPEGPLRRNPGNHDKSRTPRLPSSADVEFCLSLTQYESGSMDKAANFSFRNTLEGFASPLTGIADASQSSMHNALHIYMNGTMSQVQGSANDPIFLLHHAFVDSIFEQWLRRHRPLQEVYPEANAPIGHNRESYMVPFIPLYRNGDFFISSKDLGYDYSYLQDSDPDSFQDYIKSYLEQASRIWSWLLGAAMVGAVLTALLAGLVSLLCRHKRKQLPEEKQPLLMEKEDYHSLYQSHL

[2] = Antioxidant activity assessed as DPPH radical scavenged per mole of compound after 20 mins; format: functional
[3] = biological target: T1, Tyrosinase; experiment: Drug metabolism assessed as tyrosinase (unknown origin)-mediated redox transformation by measuring sonnerphenolic C formation at 10 mM in presence of vitamin C by HPLC analysis; format: ADME; details: 10000 µM

Compound | Drug metabolism [1] | Activity [2] | Drug metabolism [3]
C[C@@H](CCc1ccc(O)c(O)c1)O[C@@H]1O[C@H](CO)[C@@H](O)[C@H](O)[C@H]1O | Metabolite_Detected | 2.23 mol | –
C[C@@H](CCc1ccc(O)cc1)O[C@@H]1O[C@H](CO)[C@@H](O)[C@H](O)[C@H]1O | – | 0 mol | Metabolite_Detected
VITAMIN E | – | 1.86 mol | –
